Test results from patent publication US20260297085A1, “1 H-PYRROLO[2,3-B]PYRIDIN-4-YL]-2-OXOPYRROLIDINE-3-CARBONITRILE DERIVATIVES AS TYROSINE KINASE 2 (TYK2) INHIBITORS FOR THE TREATMENT OF INFLAMMATORY DISEASES” (BIOGEN MA INC., priority 2023, published 2026).

Legend:
[1] = biological target: JAK1 kinase activity on STAT3 in TF1 cells (Homo sapiens, UniProt P23458); test: pSTAT3 cell assay (MSD; TF1 cells, 30 ng/mL IL-6 stimulation); type: cell-based; settings: 30 ng/mL IL-6, 15 minutes
Procedure, shortened: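 Serum starvation, 1 h compound (10 pt, 4-fold from 10 μM), IL-6 15 min, lysis. pSTAT3 read by MSD immunoassay, anti-STAT3 Abs. Normalized % activity vs log[cpd], 4-PL fit → IC50.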

[2] = biological target: T1, human JAK3 kinase domain (JH1) (Homo sapiens, UniProt P52333); test: JH1 biochemical assay for JAK3 (ADP-Glo kinase assay, recombinant JH1 catalytic domain, JAK3-974 peptide, 4 μM ATP)
T1 construct: recombinantly generated catalytic kinase (also known as JH1) domain of human JAK1, JAK2, JAK3 and TYK2
T1 sequence (P52333 822-1111 limits assumed): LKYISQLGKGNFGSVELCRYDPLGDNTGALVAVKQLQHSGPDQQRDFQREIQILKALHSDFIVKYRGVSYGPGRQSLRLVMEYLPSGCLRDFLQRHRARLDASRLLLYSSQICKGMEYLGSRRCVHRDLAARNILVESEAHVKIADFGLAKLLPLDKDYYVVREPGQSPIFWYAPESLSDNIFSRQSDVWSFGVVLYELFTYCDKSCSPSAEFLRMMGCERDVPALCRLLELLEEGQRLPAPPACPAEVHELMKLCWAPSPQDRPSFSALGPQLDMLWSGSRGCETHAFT
Procedure, shortened: (§1)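 ADP-Glo luminescence with 50 μM peptide and 100 min reactions: JAK1 4 nM with JAK3-342 peptide; JAK2, JAK3 and TYK2 at 0.2, 0.3 and 2 nM with JAK3-974 peptide. Compounds tested from 10 or 1 μM top, 11 points, 3-fold. IC50 from a 4-parameter logistic fit of normalized activity.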

[3] = biological target: T2, human JAK1 kinase domain (JH1) (Homo sapiens, UniProt P23458); test: JH1 biochemical assay for JAK1 (ADP-Glo kinase assay, recombinant JH1 catalytic domain, JAK3-342 peptide, 35 μM ATP)
T2 construct: recombinantly generated catalytic kinase (also known as JH1) domain of human JAK1, JAK2, JAK3 and TYK2
T2 sequence (P23458 875-1153 limits assumed): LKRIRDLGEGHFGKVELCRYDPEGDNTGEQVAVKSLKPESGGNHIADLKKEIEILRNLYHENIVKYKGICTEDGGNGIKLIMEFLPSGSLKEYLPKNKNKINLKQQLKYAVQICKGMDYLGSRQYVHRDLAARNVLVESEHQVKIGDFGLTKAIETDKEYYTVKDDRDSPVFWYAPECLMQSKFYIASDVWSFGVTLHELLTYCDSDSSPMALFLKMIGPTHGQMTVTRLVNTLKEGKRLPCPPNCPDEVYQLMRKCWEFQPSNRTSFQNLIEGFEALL
Procedure, shortened: as §1

[4] = biological target: Tyk2 kinase activity on STAT4 in NK92 cells (Homo sapiens, UniProt P29597); test: pSTAT4 cell assay (MSD; NK92 cells, 30 ng/mL IL2 stimulation); type: cell-based; settings: 30 ng/mL IL2, 15 minutes
Tyk2 kinase activity on STAT4 in NK92 cells, sequence (P29597 whole entry): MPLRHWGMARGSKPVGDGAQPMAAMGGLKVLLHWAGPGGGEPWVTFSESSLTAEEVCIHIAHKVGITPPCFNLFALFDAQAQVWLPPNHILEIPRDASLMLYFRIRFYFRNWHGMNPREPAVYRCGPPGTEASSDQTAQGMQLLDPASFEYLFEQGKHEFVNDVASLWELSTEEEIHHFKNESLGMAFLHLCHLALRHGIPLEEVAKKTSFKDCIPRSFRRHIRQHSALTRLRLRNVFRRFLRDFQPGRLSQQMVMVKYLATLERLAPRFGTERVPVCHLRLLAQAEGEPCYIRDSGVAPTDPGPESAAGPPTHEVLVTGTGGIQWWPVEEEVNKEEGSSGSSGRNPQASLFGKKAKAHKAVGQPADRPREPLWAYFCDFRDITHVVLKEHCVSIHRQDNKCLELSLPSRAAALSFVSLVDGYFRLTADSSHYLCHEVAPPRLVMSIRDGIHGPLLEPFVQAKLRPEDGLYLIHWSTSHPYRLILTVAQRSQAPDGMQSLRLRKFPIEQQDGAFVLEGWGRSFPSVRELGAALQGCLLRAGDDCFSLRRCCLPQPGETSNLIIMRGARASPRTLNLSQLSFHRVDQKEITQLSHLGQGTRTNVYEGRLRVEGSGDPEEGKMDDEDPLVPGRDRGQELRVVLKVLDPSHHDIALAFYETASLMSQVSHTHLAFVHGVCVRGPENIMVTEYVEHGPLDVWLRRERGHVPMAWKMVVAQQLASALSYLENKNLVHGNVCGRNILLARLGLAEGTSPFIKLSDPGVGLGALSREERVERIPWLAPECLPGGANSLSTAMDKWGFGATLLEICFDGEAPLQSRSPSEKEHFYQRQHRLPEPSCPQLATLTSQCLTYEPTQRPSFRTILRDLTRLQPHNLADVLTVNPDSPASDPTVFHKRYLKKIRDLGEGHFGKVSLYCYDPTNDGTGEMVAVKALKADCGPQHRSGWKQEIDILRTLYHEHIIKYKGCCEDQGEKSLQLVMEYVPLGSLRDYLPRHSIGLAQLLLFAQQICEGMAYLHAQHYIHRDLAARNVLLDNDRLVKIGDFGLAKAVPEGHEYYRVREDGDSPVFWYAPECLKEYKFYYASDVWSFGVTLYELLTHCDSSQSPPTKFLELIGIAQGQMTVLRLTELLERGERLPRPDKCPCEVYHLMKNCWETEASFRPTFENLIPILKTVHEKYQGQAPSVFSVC
Procedure, shortened: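 IC50 values come from 4-parameter logistic fits of normalized percent activity. Phospho-STAT was read by MSD (anti-STAT4 antibodies) in NK92 lysates after a 15 min stimulation with 30 ng/mL IL2. The serum-starved cells had been given compound for 1 h (10 points, four-fold, top 10 μM).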

[5] = biological target: T3, human TYK2 kinase domain (JH1) (Homo sapiens, UniProt P29597); test: JH1 biochemical assay for TYK2 (ADP-Glo kinase assay, recombinant JH1 catalytic domain, JAK3-974 peptide, 10 μM ATP)
T3 construct: recombinantly generated catalytic kinase (also known as JH1) domain of human JAK1, JAK2, JAK3 and TYK2
T3 sequence (P29597 897-1176 limits assumed): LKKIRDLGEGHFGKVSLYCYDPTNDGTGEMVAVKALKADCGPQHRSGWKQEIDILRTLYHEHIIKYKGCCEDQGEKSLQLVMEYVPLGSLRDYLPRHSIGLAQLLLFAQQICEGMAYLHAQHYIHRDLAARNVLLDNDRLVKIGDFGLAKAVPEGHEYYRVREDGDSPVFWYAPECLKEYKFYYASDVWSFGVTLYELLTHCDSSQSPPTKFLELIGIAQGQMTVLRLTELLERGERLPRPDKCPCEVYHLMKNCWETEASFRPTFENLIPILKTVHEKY
Procedure, shortened: as §1

[6] = biological target: JAK2 kinase activity on STAT5 in TF1 cells (Homo sapiens, UniProt O60674); test: pSTAT5 cell assay (MSD; TF1 cells, 30 ng/mL IL-3 stimulation); type: cell-based; settings: 30 ng/mL IL-3, 15 minutes
JAK2 kinase activity on STAT5 in TF1 cells, sequence (O60674 whole entry): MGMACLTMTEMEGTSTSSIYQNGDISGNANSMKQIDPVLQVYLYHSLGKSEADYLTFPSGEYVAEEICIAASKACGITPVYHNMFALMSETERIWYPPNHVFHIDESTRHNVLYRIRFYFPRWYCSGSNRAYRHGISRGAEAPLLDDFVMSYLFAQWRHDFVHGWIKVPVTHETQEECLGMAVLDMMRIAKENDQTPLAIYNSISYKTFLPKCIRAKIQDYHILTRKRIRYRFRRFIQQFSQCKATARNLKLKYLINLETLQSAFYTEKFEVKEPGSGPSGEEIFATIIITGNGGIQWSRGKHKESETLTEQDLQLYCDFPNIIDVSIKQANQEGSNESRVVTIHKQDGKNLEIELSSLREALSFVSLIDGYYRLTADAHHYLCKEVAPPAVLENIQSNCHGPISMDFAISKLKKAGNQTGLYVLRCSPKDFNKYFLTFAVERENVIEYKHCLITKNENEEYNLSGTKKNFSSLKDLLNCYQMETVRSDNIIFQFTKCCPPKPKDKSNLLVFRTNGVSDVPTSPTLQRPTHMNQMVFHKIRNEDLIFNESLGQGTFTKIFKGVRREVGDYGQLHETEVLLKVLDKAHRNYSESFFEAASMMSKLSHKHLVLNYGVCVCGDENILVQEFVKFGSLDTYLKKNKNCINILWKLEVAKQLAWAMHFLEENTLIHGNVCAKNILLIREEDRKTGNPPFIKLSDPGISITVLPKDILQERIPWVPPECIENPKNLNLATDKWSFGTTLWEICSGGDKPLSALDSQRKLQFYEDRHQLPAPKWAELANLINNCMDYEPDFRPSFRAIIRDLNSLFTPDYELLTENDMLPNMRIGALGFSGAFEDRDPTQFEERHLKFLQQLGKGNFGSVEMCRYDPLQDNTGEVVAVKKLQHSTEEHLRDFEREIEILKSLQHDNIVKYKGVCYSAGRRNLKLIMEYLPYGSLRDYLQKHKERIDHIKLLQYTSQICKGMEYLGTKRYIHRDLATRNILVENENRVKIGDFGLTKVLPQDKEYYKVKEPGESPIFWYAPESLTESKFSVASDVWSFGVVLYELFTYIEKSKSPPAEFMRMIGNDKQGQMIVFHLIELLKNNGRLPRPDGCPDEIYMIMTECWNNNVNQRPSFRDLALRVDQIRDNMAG
Procedure, shortened: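 IC50 from a 4-parameter logistic fit of normalized pSTAT5 signal, measured by MSD in lysates of TF1 cells. Cells were serum-starved, exposed to compound for 1 h (top concentration 10 μM, four-fold, 10 points), then given IL-3 at 30 ng/mL for 15 min.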

[7] = biological target: T4, human JAK2 kinase domain (JH1) (Homo sapiens, UniProt O60674); test: JH1 biochemical assay for JAK2 (ADP-Glo kinase assay, recombinant JH1 catalytic domain, JAK3-974 peptide, 15 μM ATP)
T4 construct: recombinantly generated catalytic kinase (also known as JH1) domain of human JAK1, JAK2, JAK3 and TYK2
T4 sequence (O60674 849-1124 limits assumed): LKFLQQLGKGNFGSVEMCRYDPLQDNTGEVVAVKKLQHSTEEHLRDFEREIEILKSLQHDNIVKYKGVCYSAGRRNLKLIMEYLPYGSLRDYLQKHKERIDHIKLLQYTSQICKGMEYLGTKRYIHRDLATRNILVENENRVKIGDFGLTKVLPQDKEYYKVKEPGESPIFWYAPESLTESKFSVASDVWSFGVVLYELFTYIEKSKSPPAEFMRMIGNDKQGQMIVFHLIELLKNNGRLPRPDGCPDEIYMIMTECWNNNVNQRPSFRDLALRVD
Procedure, shortened: as §1

JAK1 kinase activity on STAT3 in TF1 cells, sequence (P23458 whole entry): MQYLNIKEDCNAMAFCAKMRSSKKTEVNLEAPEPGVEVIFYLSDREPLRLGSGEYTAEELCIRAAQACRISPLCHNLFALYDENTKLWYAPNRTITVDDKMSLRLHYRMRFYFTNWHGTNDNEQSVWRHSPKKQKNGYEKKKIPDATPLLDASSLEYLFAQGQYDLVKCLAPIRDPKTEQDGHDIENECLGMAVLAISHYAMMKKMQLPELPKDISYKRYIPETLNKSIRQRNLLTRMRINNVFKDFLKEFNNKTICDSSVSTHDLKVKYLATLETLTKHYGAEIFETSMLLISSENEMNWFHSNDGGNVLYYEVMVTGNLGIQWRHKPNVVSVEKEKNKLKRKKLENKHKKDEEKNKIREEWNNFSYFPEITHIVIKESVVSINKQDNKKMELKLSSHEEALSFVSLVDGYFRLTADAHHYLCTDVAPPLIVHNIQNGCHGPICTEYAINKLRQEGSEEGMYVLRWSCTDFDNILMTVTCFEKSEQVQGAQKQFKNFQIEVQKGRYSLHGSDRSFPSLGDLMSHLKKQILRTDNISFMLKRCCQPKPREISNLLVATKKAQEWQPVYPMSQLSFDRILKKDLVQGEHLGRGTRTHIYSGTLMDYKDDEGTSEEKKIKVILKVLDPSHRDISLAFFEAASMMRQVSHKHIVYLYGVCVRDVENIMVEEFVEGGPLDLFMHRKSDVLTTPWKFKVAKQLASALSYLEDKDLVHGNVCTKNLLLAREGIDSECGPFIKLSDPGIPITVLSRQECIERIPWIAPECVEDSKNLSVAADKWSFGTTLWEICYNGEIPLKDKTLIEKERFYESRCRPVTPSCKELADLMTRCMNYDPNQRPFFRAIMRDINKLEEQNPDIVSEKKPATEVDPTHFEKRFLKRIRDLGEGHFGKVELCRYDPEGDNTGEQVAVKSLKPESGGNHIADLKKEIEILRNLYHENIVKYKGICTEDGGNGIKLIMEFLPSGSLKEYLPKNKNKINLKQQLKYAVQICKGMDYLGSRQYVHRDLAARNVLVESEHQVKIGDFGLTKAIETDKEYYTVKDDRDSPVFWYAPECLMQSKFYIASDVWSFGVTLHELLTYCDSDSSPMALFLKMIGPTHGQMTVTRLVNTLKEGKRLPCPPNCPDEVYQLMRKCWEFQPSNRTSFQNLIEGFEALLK

SMILES | IC50 [1] [nM] | IC50 ([2]; JAK3 JH1, ADP-Glo) [nM] | IC50 ([3]; JAK1 JH1, ADP-Glo) [nM] | IC50 [4] [nM] | IC50 ([5]; TYK2 JH1, ADP-Glo) [nM] | IC50 [6] [nM] | IC50 ([7]; JAK2 JH1, ADP-Glo) [nM] | IC50 ([2]; JH1 kinase domain, ADP-Glo) [nM] | IC50 ([3]; JH1 kinase domain, ADP-Glo) [nM] | IC50 ([5]; JH1 kinase domain, ADP-Glo) [nM] | IC50 ([7]; JH1 kinase domain, ADP-Glo) [nM]
C[C@@H]1CN(c2nc(-c3cnc4[nH]ccc4c3)cn3nccc23)C(=O)[C@]1(C#N)C1CC1 [Example 230, (3R,4S)-1-(6-(1H-pyrrolo[2,3-b]pyridin-5-yl)pyrazolo[1,5-a]pyrazin-4-yl)-3-cyclopropyl-4-methyl-2-oxopyrrolidine-3-carbonitrile] | 100 to 1000 | < 100 | < 100 | 5 to 20 | < 5 | 1000 to 5000 | 100 to 1000 |  |  |  | 
C[C@@H]1CN(c2ccnc3[nH]c(-c4cnn(C)c4)cc23)C(=O)[C@]1(C#N)C1CC1 [Example 1, (3R,4S)-3-cyclopropyl-4-methyl-1-(2-(1-methyl-1H-pyrazol-4-yl)-1H-pyrrolo[2,3-b]pyridin-4-yl)-2-oxopyrrolidine-3-carbonitrile] | < 100 |  |  | 5 to 20 |  | 100 to 1000 |  | < 100 | < 100 | < 5 | < 100
C[C@@H]1CN(c2ccnn3cc(-c4cnn(C)c4)nc23)C(=O)[C@]1(C#N)C1CC1 [Example 182, (3R,4S)-3-cyclopropyl-4-methyl-1-(2-(1-methyl-1H-pyrazol-4-yl)imidazo[1,2-b]pyridazin-8-yl)-2-oxopyrrolidine-3-carbonitrile] | 5000 to 10000 |  |  | > 100 |  | > 10000 |  | 100 to 1000 | 100 to 1000 | 20 to 50 | 100 to 1000
C[C@@H]1CN(c2ccnn3cc(-c4cnn(C5CC(F)(F)C5)c4)cc23)C(=O)[C@]1(C#N)C1CC1 [Example 157, (3R,4S)-3-cyclopropyl-1-(6-(1-(3,3-difluorocyclobutyl)-1H-pyrazol-4-yl)pyrrolo[1,2-b]pyridazin-4-yl)-4-methyl-2-oxopyrrolidine-3-carbonitrile] | 100 to 1000 |  |  | 50 to 100 |  | 1000 to 5000 |  | < 100 | < 100 | < 5 | < 100
C[C@@H]1CN(c2ccnn3cc(-c4cnn(S(C)(=O)=O)c4)cc23)C(=O)[C@]1(C#N)C1CC1 [Example 163, (3R,4S)-3-cyclopropyl-4-methyl-1-(6-(1-(methylsulfonyl)-1H-pyrazol-4-yl)pyrrolo[1,2-b]pyridazin-4-yl)-2-oxopyrrolidine-3-carbonitrile] | 1000 to 5000 |  |  | > 100 |  | 5000 to 10000 |  | 100 to 1000 | 100 to 1000 | < 5 | 100 to 1000
C[C@@H]1CN(c2nc(-c3cccnc3)cn3nccc23)C(=O)[C@]1(C#N)C1CC1 [Example 194, (3R,4S)-3-cyclopropyl-4-methyl-2-oxo-1-(6-(pyridin-3-yl)pyrazolo[1,5-a]pyrazin-4-yl)pyrrolidine-3-carbonitrile] | 1000 to 5000 |  |  | > 100 |  | 1000 to 5000 |  | < 100 | < 100 | < 5 | 100 to 1000
Cc1ccn(-c2cc3c(N4C[C@@H](C)[C@@](C#N)(C5CC5)C4=O)ccnn3c2)n1 [Example 334, (3R,4S)-3-cyclopropyl-4-methyl-1-(6-(3-methyl-1H-pyrazol-1-yl)pyrrolo[1,2-b]pyridazin-4-yl)-2-oxopyrrolidine-3-carbonitrile] | > 10000 | 100 to 1000 | 1000 to 5000 | > 100 | 20 to 50 | > 10000 | 1000 to 5000 |  |  |  | 
